Reference: patent US20040087661A1, “Treatment of CNS disorders with trans 4-3(3,4-dichlorophenyl)-1,2,3,4-tetrahydro-N-methyl-1-napthalenamine” (Sepracor, Inc., priority 2002, published 2004)
Read-outs that look alike come from different tables or passages of the source.

Experiments:
[1] = target: T1, functional uptake of norepinephrine (NE) (Rattus norvegicus, UniProt Q63380); experiment: Norepinephrine functional uptake assay in rat hypothalamus synaptosomes; type: biochemical; conditions: read-out: inhibition of NE uptake (no IC50 determined)
T1 construct: synaptosomes isolated at Cerep in a 0.32 M sucrose buffer from a male Wistar rat hypothalamus; tissue Cerep; host or cells: male Wistar rat hypothalamus synaptosomes
T1 sequence (Q63380 1-617): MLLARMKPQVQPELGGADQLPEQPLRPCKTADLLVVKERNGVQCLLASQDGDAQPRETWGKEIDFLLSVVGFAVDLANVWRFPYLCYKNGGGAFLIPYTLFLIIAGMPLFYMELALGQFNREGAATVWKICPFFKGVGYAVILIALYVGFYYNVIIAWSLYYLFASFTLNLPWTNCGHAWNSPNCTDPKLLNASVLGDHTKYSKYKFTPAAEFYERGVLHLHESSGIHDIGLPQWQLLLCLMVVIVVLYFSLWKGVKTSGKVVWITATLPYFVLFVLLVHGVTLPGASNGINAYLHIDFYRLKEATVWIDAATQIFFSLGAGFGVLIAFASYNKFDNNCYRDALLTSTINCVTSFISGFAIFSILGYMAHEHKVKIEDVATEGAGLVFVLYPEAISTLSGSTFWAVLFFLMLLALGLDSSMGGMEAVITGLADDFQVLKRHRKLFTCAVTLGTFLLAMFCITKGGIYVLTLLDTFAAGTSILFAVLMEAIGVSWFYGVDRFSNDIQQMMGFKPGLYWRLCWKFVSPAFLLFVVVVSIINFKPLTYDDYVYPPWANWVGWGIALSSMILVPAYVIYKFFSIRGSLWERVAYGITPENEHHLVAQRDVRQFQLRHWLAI

[2] = target: T2, functional uptake of dopamine (DA) (Rattus norvegicus, UniProt P23977); experiment: Dopamine functional uptake assay in rat striatum synaptosomes; type: biochemical; conditions: initial test at 10 μM in duplicate; read-out: inhibition of DA uptake (no IC50 determined)
T2 construct: synaptosomes isolated at Cerep in a 0.32 M sucrose buffer from a male Wistar rat striatum; tissue Cerep; host or cells: male Wistar rat striatum synaptosomes
T2 sequence (P23977 whole entry): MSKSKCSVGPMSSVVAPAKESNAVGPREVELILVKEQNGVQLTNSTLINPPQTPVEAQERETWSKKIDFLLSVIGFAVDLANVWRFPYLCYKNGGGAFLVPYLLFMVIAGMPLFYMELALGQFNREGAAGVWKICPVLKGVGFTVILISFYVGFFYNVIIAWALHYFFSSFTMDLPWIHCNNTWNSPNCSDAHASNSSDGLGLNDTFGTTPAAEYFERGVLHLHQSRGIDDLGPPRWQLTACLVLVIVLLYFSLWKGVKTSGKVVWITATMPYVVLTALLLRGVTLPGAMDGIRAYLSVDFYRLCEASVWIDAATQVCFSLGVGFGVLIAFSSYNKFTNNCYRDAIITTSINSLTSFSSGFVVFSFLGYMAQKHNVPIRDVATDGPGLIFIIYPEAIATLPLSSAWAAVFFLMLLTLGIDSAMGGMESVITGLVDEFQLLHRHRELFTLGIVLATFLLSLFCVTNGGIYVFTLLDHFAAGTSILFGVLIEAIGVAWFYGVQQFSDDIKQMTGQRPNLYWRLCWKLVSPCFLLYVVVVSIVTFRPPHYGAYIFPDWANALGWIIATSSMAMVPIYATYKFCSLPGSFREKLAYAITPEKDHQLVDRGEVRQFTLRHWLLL

| inhibition at 10 µM ([1]; initial test at 10 μM in duplicate) | SMILES | inhibition at 10 µM [1] | inhibition at 10 µM [2] |
| --- | --- | --- | --- |
| < 50% | Fc1ccc(C(OCCN2CCN(CCCc3ccccc3)CC2)c2ccc(F)cc2)cc1 [GBR 12909] | – | – |
| – | CN(C)CCCN1c2ccccc2CCc2ccccc21 [imipramine] | < 50% | < 50% |
| – | CNCCCC1c2ccccc2C=Cc2ccccc21 [protriptyline] | – | < 50% |
